From patent US8722849B2, “Polypeptides” (Novo Nordisk A/S, priority 2011, dated 2014)
Values after ≈ are worked out from the molar mass of the structure shown. Where two headings read alike, the source gives them in different places. Starred links: 1 amine or outer side, 2 acyl side, 3 side chain; linkers in the order of their positions; H or OH if unused. Positions of bridges follow the written chain, without caps; N, C: chain ends. Residues, ends and D or L forms follow the SMILES beside them. *: point of attachment. C20 diacid = O=C(O)CCCCCCCCCCCCCCCCCCC(=O)*; C18 diacid = O=C(O)CCCCCCCCCCCCCCCCC(=O)*; γGlu = O=C(O)[C@H](CCC(=O)[*:2])N[*:1]

Assays:
[1] = Assay (IV) determination of solubility; format: physicochemical
How it was run: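 Polypeptide in water (~500 nmol/ml stock) was mixed 1:1 with 100 mM buffers from pH 3.0 to 8.0 (glycylglycine pH 3.0–5.0; bistrispropane pH 6.0–8.0). After 18 hours at room temperature, samples were centrifuged and the polypeptide remaining in solution was quantified by HPLC.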

[2] = Assay (III) ThT fibrillation assay for physical stability; format: physicochemical; settings: ThT fibrillation assay
How it was run: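 Freshly prepared formulations, pH-adjusted, with 1 μM ThT; four or eight replicates incubated at 37 °C under 960 rpm orbital shaking. Fluorescence (ex 444/em 485 nm) read every 20 min; […]. Peptide concentration measured by RP-HPLC before and after the run.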

[3] = biological target: T1, rat amylin 3(a) receptor (rat calcitonin(a) receptor + rat RAMP3) (Rattus norvegicus, UniProt P32214+Q9JJ73); test: Assay (II)b functional cAMP FlashPlate assay, rat amylin receptor; format: cell-based; settings: Table 11
T1 construct: expressed in transfected cells; host or cells: BHK tk'ts 13
T1 sequence (P32214 25-479 isoform P32214-2 limits assumed): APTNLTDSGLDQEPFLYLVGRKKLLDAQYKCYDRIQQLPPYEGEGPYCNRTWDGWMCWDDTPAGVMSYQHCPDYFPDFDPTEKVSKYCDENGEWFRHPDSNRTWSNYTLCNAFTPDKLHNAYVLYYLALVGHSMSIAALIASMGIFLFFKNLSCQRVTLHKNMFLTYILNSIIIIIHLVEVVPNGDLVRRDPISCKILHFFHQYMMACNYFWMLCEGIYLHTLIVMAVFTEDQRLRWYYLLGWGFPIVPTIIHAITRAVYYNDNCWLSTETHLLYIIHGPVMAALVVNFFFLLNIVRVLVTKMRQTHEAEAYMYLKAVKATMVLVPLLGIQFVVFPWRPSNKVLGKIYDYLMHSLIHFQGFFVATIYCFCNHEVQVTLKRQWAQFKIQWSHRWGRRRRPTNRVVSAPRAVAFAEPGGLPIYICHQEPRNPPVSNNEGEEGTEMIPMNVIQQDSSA
T1 sequence (Q9JJ73 23-147 partner): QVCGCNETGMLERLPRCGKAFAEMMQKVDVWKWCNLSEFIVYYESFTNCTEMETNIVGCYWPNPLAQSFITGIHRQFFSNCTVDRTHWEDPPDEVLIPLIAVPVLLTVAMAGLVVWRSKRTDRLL
How it was run: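 BHK tk'ts 13 cells transiently transfected with rat calcitonin(a) receptor, alone or with rat RAMP3 (amylin 3(a)), were stimulated 24 hours later with sample for 30 min in buffer containing IBMX. cAMP measured by competitive radioactive FlashPlate assay, scintillation read after 3 h detection incubation.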

[4] = bistrispropane buffer, pH 6, pH 6.0, read-out: Solubility pH 6.0
[5] = bistrispropane buffer, pH 6.5, pH 6.5, read-out: Solubility pH 6.5
[6] = bistrispropane buffer, pH 7, pH 7.0, 18 hours at room temperature, Table 3, read-out: Solubility pH 7.0
[7] = bistrispropane buffer, pH 7, pH 7.0, read-out: Solubility pH 7.0
[8] = bistrispropane buffer, pH 7.5, pH 7.5, read-out: Solubility pH 7.5
[9] = bistrispropane buffer, pH 8, pH 8.0, read-out: Solubility pH 8.0
[10] = glycylglycine buffer, pH 3, pH 3.0, read-out: Solubility pH 3.0
[11] = glycylglycine buffer, pH 4, pH 4.0, 18 hours at room temperature, Table 2, read-out: Solubility pH 4.0
[12] = glycylglycine buffer, pH 4, pH 4.0, read-out: Solubility pH 4.0
[13] = glycylglycine buffer, pH 5, pH 5.0, read-out: Solubility pH 5.0

## CC[C@H](C)[C@H](NC(=O)[C@@H]1CCCN1C(=O)CNC(=O)[C@H](Cc1ccccc1)NC(=O)[C@H](CC(N)=O)NC(=O)[C@H](CC(N)=O)NC(=O)[C@H](CO)NC(=O)[C@H](CO)NC(=O)[C@H](Cc1c[nH]cn1)NC(=O)[C@H](Cc1c[nH]cn1)NC(=O)[C@H](CC(C)C)NC(=O)[C@H](Cc1ccccc1)NC(=O)[C@H](CCC(=O)O)NC(=O)[C@H](C)NC(=O)[C@H](CC(C)C)NC(=O)[C@H](CCCNC(=N)N)NC(=O)[C@H](CCC(N)=O)NC(=O)[C@@H](NC(=O)[C@H](C)NC(=O)[C@@H]1CSSC[C@H](NC(=O)[C@H](CCCCN)NC(=O)CC[C@H](NC(=O)CCCCCCCCCCCCCCCCCCC(=O)O)C(=O)O)C(=O)N[C@@H](CC(N)=O)C(=O)N[C@@H]([C@@H](C)O)C(=O)N[C@@H](C)C(=O)N[C@@H]([C@@H](C)O)C(=O)N1)[C@@H](C)O)C(=O)N[C@@H](CC(C)C)C(=O)N1CCC[C@H]1C(=O)N1CCC[C@H]1C(=O)N[C@H](C(=O)N[C@@H](CC(N)=O)C(=O)N[C@H](C(=O)NCC(=O)N[C@@H](CO)C(=O)N[C@@H](CC(N)=O)C(=O)N[C@H](C(=O)N[C@@H](Cc1ccc(O)cc1)C(N)=O)[C@@H](C)O)C(C)C)[C@@H](C)O [Example 27, N-alpha-[(S)-4-Carboxy-4-(19-carboxynonadecanoylamino)butyryl]-[Glu14,His17]-pramlintide] ({C20 diacid-γGlu}-KCNTATCATQRLAEFLHHSSNNFGPILPPTNVGSNTY-NH2; disulfide 2-7 (inferred))
[1]; [4]
  solubility at 18 h: > 200 µM
[1]; [5]
  solubility at 18 h: 174 µM (≈ 775 µg/mL)
[1]; [6]
  solubility at 18 h: 160 µM (≈ 713 µg/mL)
[1]; [7]
  solubility at 18 h: 160 µM (≈ 713 µg/mL)
[1]; [8]
  solubility at 18 h: > 200 µM
[1]; [9]
  solubility at 18 h: > 200 µM
[1]; [10]
  solubility at 18 h: > 200 µM
[1]; [11]
  solubility at 18 h: > 200 µM
[1]; [12]
  solubility at 18 h: > 200 µM
[1]; [13]
  solubility at 18 h: > 200 µM
[2]
  ThT pH 4.0 lag time (h): 12.3 h
[3]
  EC50: 0.188 nM

## CC[C@H](C)[C@H](NC(=O)[C@@H]1CCCN1C(=O)CNC(=O)[C@H](Cc1ccccc1)NC(=O)[C@H](CC(N)=O)NC(=O)[C@H](CC(N)=O)NC(=O)[C@H](CO)NC(=O)[C@H](CO)NC(=O)[C@H](Cc1c[nH]cn1)NC(=O)[C@H](Cc1c[nH]cn1)NC(=O)[C@H](CC(C)C)NC(=O)[C@H](Cc1ccccc1)NC(=O)[C@H](CCC(=O)O)NC(=O)[C@H](C)NC(=O)[C@H](CC(C)C)NC(=O)[C@H](CCCNC(=N)N)NC(=O)[C@H](CCC(N)=O)NC(=O)[C@@H](NC(=O)[C@H](C)NC(=O)[C@@H]1CSSC[C@H](NC(=O)[C@H](Cc2c[nH]cn2)NC(=O)[C@H](Cc2c[nH]cn2)NC(=O)[C@H](Cc2c[nH]cn2)NC(=O)CC[C@H](NC(=O)CCCCCCCCCCCCCCCCCCC(=O)O)C(=O)O)C(=O)N[C@@H](CC(N)=O)C(=O)N[C@@H]([C@@H](C)O)C(=O)N[C@@H](C)C(=O)N[C@@H]([C@@H](C)O)C(=O)N1)[C@@H](C)O)C(=O)N[C@@H](CC(C)C)C(=O)N1CCC[C@H]1C(=O)N1CCC[C@H]1C(=O)N[C@H](C(=O)N[C@@H](CC(N)=O)C(=O)N[C@H](C(=O)NCC(=O)N[C@@H](CO)C(=O)N[C@@H](Cc1c[nH]cn1)C(=O)N[C@H](C(=O)N[C@@H](Cc1ccc(O)cc1)C(N)=O)[C@@H](C)O)C(C)C)[C@@H](C)O [Example 31, N-alpha-[(S)-4-Carboxy-4-(19-carboxynonadecanoylamino)butyryl]-His-His-[His1,Glu14,His17,His35]-pramlintide] ({C20 diacid-γGlu}-HHHCNTATCATQRLAEFLHHSSNNFGPILPPTNVGSHTY-NH2; disulfide 4-9 (inferred); C-terminus assumed)
[1]; [4]
  solubility at 18 h: > 200 µM
[1]; [5]
  solubility at 18 h: 8 µM (≈ 38.1 µg/mL)
[1]; [8]
  solubility at 18 h: 10 µM (≈ 47.6 µg/mL)
[1]; [9]
  solubility at 18 h: 65 µM (≈ 310 µg/mL)
[1]; [10]
  solubility at 18 h: > 200 µM
[1]; [11]
  solubility at 18 h: > 200 µM
[1]; [12]
  solubility at 18 h: > 200 µM
[1]; [13]
  solubility at 18 h: > 200 µM
[2]
  ThT pH 4.0 lag time: >45 h
  ThT pH 4.0 lag time (h): >45 h
[3]
  EC50: 0.2 nM

## CC[C@H](C)[C@H](NC(=O)[C@@H]1CCCN1C(=O)CNC(=O)[C@H](Cc1ccccc1)NC(=O)[C@H](CC(N)=O)NC(=O)[C@H](CC(N)=O)NC(=O)[C@H](CO)NC(=O)[C@H](CO)NC(=O)[C@H](Cc1c[nH]cn1)NC(=O)[C@H](Cc1c[nH]cn1)NC(=O)[C@H](CC(C)C)NC(=O)[C@H](Cc1ccccc1)NC(=O)[C@H](CCC(=O)O)NC(=O)[C@H](C)NC(=O)[C@H](CC(C)C)NC(=O)[C@H](CCCNC(=N)N)NC(=O)[C@H](CCC(N)=O)NC(=O)[C@@H](NC(=O)[C@H](C)NC(=O)[C@@H]1CSSC[C@H](NC(=O)[C@H](Cc2c[nH]cn2)NC(=O)[C@H](Cc2c[nH]cn2)NC(=O)[C@H](Cc2c[nH]cn2)NC(=O)CC[C@H](NC(=O)CCCCCCCCCCCCCCCCCCC(=O)O)C(=O)O)C(=O)N[C@@H](Cc2c[nH]cn2)C(=O)N[C@@H]([C@@H](C)O)C(=O)N[C@@H](C)C(=O)N[C@@H]([C@@H](C)O)C(=O)N1)[C@@H](C)O)C(=O)N[C@@H](CC(C)C)C(=O)N1CCC[C@H]1C(=O)N1CCC[C@H]1C(=O)N[C@H](C(=O)N[C@@H](CC(N)=O)C(=O)N[C@H](C(=O)NCC(=O)N[C@@H](CO)C(=O)N[C@@H](Cc1c[nH]cn1)C(=O)N[C@H](C(=O)N[C@@H](Cc1ccc(O)cc1)C(N)=O)[C@@H](C)O)C(C)C)[C@@H](C)O [Example 32, N-alpha-[(S)-4-Carboxy-4-(19-carboxynonadecanoylamino)butyryl]-His-His-[His1,His3,Glu14,His17,His35]-pramlintide] ({C20 diacid-γGlu}-HHHCHTATCATQRLAEFLHHSSNNFGPILPPTNVGSHTY-NH2; disulfide 4-9 (inferred))
[1]; [4]
  solubility at 18 h: > 200 µM
[1]; [5]
  solubility at 18 h: 6 µM (≈ 28.7 µg/mL)
[1]; [8]
  solubility at 18 h: 6 µM (≈ 28.7 µg/mL)
[1]; [9]
  solubility at 18 h: 55 µM (≈ 263 µg/mL)
[1]; [10]
  solubility at 18 h: > 200 µM
[1]; [11]
  solubility at 18 h: > 200 µM
[1]; [12]
  solubility at 18 h: > 200 µM
[1]; [13]
  solubility at 18 h: > 200 µM
[2]
  ThT pH 4.0 lag time: >45 h
  ThT pH 4.0 lag time (h): >45 h
[3]
  EC50: 0.401 nM

## CC[C@H](C)[C@H](NC(=O)[C@@H]1CCCN1C(=O)CNC(=O)[C@H](Cc1ccccc1)NC(=O)[C@H](CC(N)=O)NC(=O)[C@H](CC(N)=O)NC(=O)[C@H](CO)NC(=O)[C@H](CO)NC(=O)[C@H](Cc1c[nH]cn1)NC(=O)[C@H](Cc1c[nH]cn1)NC(=O)[C@H](CC(C)C)NC(=O)[C@H](Cc1ccccc1)NC(=O)[C@H](CCC(=O)O)NC(=O)[C@H](C)NC(=O)[C@H](CC(C)C)NC(=O)[C@H](CCCNC(=N)N)NC(=O)[C@H](CCC(N)=O)NC(=O)[C@@H](NC(=O)[C@H](C)NC(=O)[C@@H]1CSSC[C@H](NC(=O)[C@H](CCCCN)NC(=O)[C@H](CCC(=O)O)NC(=O)CC[C@H](NC(=O)CCCCCCCCCCCCCCCCC(=O)O)C(=O)O)C(=O)N[C@@H](CC(N)=O)C(=O)N[C@@H]([C@@H](C)O)C(=O)N[C@@H](C)C(=O)N[C@@H]([C@@H](C)O)C(=O)N1)[C@@H](C)O)C(=O)N[C@@H](CC(C)C)C(=O)N1CCC[C@H]1C(=O)N1CCC[C@H]1C(=O)N[C@H](C(=O)N[C@@H](CC(N)=O)C(=O)N[C@H](C(=O)NCC(=O)N[C@@H](CO)C(=O)N[C@@H](CC(N)=O)C(=O)N[C@H](C(=O)N[C@@H](Cc1ccc(O)cc1)C(N)=O)[C@@H](C)O)C(C)C)[C@@H](C)O [Example 42, N-alpha-[(S)-4-Carboxy-4-(17-carboxyheptadecanoylamino)butyryl]-Glu-[Glu14,His17]-pramlintide] ({C18 diacid-γGlu}-EKCNTATCATQRLAEFLHHSSNNFGPILPPTNVGSNTY-NH2; disulfide 3-8 (inferred))
[1]; [4]
  solubility at 18 h: > 200 µM
[1]; [5]
  solubility at 18 h: > 200 µM
[1]; [6]
  solubility at 18 h: > 200 µM
[1]; [7]
  solubility at 18 h: > 200 µM
[1]; [8]
  solubility at 18 h: > 200 µM
[1]; [9]
  solubility at 18 h: > 200 µM
[1]; [10]
  solubility at 18 h: > 200 µM
[1]; [11]
  solubility at 18 h: > 200 µM
[1]; [12]
  solubility at 18 h: > 200 µM
[1]; [13]
  solubility at 18 h: > 200 µM
[2]
  ThT pH 4.0 lag time (h): 7.3 h
[3]
  EC50: 0.135 nM
